# Reference: US8435978B2, “Substituted sulfonamide compounds” (Gruenenthal GmbH, priority 2006, dated 2013)
# Tests used:
# human B1R receptor = target: T1, human B1R receptor (Homo sapiens, UniProt P46663); assay: Functional study on the bradykinin receptor 1 (B1R), FLIPR Ca2+ assay, hB1R cells; format: cell-based; settings: CHO-K1, test substance 10 μM, agonist Lys-Des-Arg9-bradykinin 0.5 nM, % inhibition compared with the maximum achievable inhibition, read-out: B1R Antagonism, human [10 μM] % Inhibition
# T1 construct: host or cells: CHO K1 cells (Chinese hamster ovary), stably transfected
# T1 sequence (P46663 1-353): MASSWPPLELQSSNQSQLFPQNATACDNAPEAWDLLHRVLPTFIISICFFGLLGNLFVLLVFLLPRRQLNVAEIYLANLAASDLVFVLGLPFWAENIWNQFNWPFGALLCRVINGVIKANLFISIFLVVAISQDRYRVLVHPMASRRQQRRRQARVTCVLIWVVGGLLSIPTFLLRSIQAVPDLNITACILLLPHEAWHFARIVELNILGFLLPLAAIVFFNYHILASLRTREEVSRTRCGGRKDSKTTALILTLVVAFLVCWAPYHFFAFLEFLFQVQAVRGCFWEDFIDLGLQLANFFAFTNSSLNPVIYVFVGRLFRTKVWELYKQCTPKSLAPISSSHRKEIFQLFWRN
# In short: (§1)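 CHO K1 cells stably expressing human or rat B1R were loaded with Fluo-4 and read on a FLIPR (ex 488/em 540 nm, peak fluorescence). Test compounds at 10 μM were added first, then after 10 min agonist: Lys-Des-Arg9-bradykinin 0.5 nM for hB1R, Des-Arg9-bradykinin 100 nM for rB1R; % inhibition versus maximum inhibition.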
# B1R receptor of the rat = target: T2, B1R receptor of the rat (Rattus norvegicus, UniProt P97583); assay: Functional study on the bradykinin receptor 1 (B1R), FLIPR Ca2+ assay, rB1R cells; format: cell-based; settings: CHO-K1, test substance 10 μM, agonist Des-Arg9-bradykinin 100 nM, % inhibition compared with the maximum achievable inhibition, read-out: B1R Antagonism, rat [10 μM] % Inhibition
# T2 construct: host or cells: CHO K1 cells (Chinese hamster ovary), stably transfected
# T2 sequence (P97583 1-337): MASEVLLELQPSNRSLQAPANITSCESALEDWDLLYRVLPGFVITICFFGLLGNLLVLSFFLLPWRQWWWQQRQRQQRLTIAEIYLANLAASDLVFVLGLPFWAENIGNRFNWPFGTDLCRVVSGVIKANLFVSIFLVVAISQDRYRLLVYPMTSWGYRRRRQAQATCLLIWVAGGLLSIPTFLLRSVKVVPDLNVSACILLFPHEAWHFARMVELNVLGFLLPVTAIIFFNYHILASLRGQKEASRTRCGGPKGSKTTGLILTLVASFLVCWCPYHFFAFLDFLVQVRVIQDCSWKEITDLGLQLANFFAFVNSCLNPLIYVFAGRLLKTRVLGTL
# In short: as §1
inhibition at 10 µM (human B1R receptor) [%],inhibition at 10 µM (B1R receptor of the rat) [%],Structure (SMILES)
67.9,102,"COc1cc(C)c(S(=O)(=O)N2CCCCC2COCC(=O)N(C)CCN(C)C)c(C)c1 (stereo not drawn) [Example 379, N-(2-(dimethylamino)ethyl)-2-((1-(4-methoxy-2,6-dimethylphenylsulfonyl)piperidin-2-yl)methoxy)-N-methylacetamide]"
80,100,"COc1cc(C)c(S(=O)(=O)N2CCCCC2COCC(=O)NCCN2CCCC2)c(C)c1 (stereo not drawn) [Example 343, 2-((1-(4-methoxy-2,6-dimethylphenylsulfonyl)piperidin-2-yl)methoxy)-N-(2-(pyrrolidin-1-yl)ethyl)acetamide]"
62.7,0,"O=C(COCC1CCCCN1S(=O)(=O)c1ccc(Cl)c(Cl)c1)N1CCN(c2ccccc2)CC1 (stereo not drawn) [Example 56, 2-[1-(3,4-dichloro-phenylsulfonyl)-piperidin-2-ylmethoxy]-1-(4-phenyl-piperazin-1-yl)-ethanone]"
104,95.4,"O=C(COCC1CCCCN1S(=O)(=O)c1c(Cl)cccc1Cl)N1CCC(CCN2CCCCC2)CC1 (stereo not drawn) [Example 279, 2-((1-(2,6-dichlorophenylsulfonyl)piperidin-2-yl)methoxy)-1-(4-(2-(piperidin-1-yl)ethyl)piperidin-1-yl)ethanone]"
25.2,102,"O=C(COCC1CCCCN1S(=O)(=O)c1c(Cl)cccc1Cl)N1CCN(c2nc3ccc(Cl)cc3s2)CC1 (stereo not drawn) [Example 554, 1-(4-(6-chlorobenzo[d]thiazol-2-yl)piperazin-1-yl)-2-((1-(2,6-dichlorophenylsulfonyl)piperidin-2-yl)methoxy)ethanone]"
84.7,0,"CN1CCN(C2CCN(C(=O)COCC3CCCCN3S(=O)(=O)c3ccc(Cl)c(Cl)c3)CC2)CC1 (stereo not drawn) [Example 28, 2-[1-(3,4-dichloro-phenylsulfonyl)-piperidin-2-ylmethoxy]-1-[4-(4-methyl-piperazin-1-yl)-piperidin-1-yl]-ethanone]"
105,99.8,"COc1cc(C)c(S(=O)(=O)N2CCCCC2COCC(=O)N2CCN(Cc3cnn(C)c3C)CC2)c(C)c1 (stereo not drawn) [Example 198, 1-(4-((1,5-dimethyl-1H-pyrazol-4-yl)methyl)piperazin-1-yl)-2-((1-(4-methoxy-2,6-dimethylphenylsulfonyl)piperidin-2-yl)methoxy)ethanone]"
102,93.1,"COc1cc(C)c(S(=O)(=O)N2Cc3ccccc3CC2COCC(=O)N2CCC(N3CCN(C)CC3)CC2)c(C)c1C (stereo not drawn) [Example 275, 2-((2-(4-methoxy-2,3,6-trimethylphenylsulfonyl)-1,2,3,4-tetrahydroisoquinolin-3-yl)methoxy)-1-(4-(4-methylpiperazin-1-yl)piperidin-1-yl)ethanone]"

# The remaining lines, values behind:
Structure (SMILES),inhibition at 10 µM (human B1R receptor) [%],inhibition at 10 µM (B1R receptor of the rat) [%]
"COc1cc(C)c(S(=O)(=O)N2CCCC2COCC(=O)NC2CCN(Cc3ccccc3)CC2)c(C)c1 (stereo not drawn) [Example 477, N-(1-benzylpiperidin-4-yl)-2-((1-(4-methoxy-2,6-dimethylphenylsulfonyl)pyrrolidin-2-yl)methoxy)acetamide]",94.5,98.8
"O=C(COCC1CCCN1S(=O)(=O)c1c(Cl)cccc1Cl)NCC1CCCN(Cc2ccccc2)C1 (stereo not drawn) [Example 323, N-((1-benzylpiperidin-3-yl)methyl)-2-((1-(2,6-dichlorophenylsulfonyl)pyrrolidin-2-yl)methoxy)acetamide]",105,88.1
"COc1cc(C)c(S(=O)(=O)N2CCCC2COCC(=O)Nc2cccc(CN3CCCCC3)c2)c(C)c1 (stereo not drawn) [Example 471, 2-((1-(4-methoxy-2,6-dimethylphenylsulfonyl)pyrrolidin-2-yl)methoxy)-N-(3-(piperidin-1-ylmethyl)phenyl)acetamide]",103,98.8
"COc1cc(C)c(S(=O)(=O)N2CCCCC2COCC(=O)N(CCCN(C)C)CCCN(C)C)c(C)c1 (stereo not drawn) [Example 561, N,N-bis(3-(dimethylamino)propyl)-2-((1-(4-methoxy-2,6-dimethylphenylsulfonyl)piperidin-2-yl)methoxy)acetamide]",102,101
"COc1cc(C)c(S(=O)(=O)N2CCCCC2COCC(=O)NCCCN2CCOCC2)c(C)c1 (stereo not drawn) [Example 344, 2-((1-(4-methoxy-2,6-dimethylphenylsulfonyl)piperidin-2-yl)methoxy)-N-(3-morpholinopropyl)acetamide]",48.8,88.4
"Cc1ccc(C)n1CCN1CCN(C(=O)COCC2CCCN2S(=O)(=O)c2c(Cl)cc(Cl)cc2Cl)CC1 (stereo not drawn) [Example 332, 1-(4-(2-(2,5-dimethyl-1H-pyrrol-1-yl)ethyl)piperazin-1-yl)-2-((1-(2,4,6-trichlorophenylsulfonyl)pyrrolidin-2-yl)methoxy)ethanone]",105,101
"COc1cc(C)c(S(=O)(=O)N2CCCCC2COCC(=O)N2CCN(Cc3nc4ccccc4[nH]3)CC2)c(C)c1 (stereo not drawn) [Example 117, 1-(4-((1H-benzo[d]imidazol-2-yl)methyl)piperazin-1-yl)-2-((1-(4-methoxy-2,6-dimethylphenylsulfonyl)piperidin-2-yl)methoxy)ethanone]",101,101
"O=C(COCC1CCCCN1S(=O)(=O)c1ccc(Cl)c(Cl)c1)N1CCOC(CN2CCCCC2)C1 (stereo not drawn) [Example 266, 2-((1-(3,4-dichlorophenylsulfonyl)piperidin-2-yl)methoxy)-1-(2-(piperidin-1-ylmethyl)morpholino)ethanone]",102,2.12
"COc1cc(C)c(S(=O)(=O)N2CCCCC2COCC(=O)NCCc2c[nH]c3ccccc23)c(C)c1 (stereo not drawn) [Example 243, N-(2-(1H-indol-3-yl)ethyl)-2-((1-(4-methoxy-2,6-dimethylphenylsulfonyl)piperidin-2-yl)methoxy)acetamide]",24.8,80.6
"Cc1cc(S(=O)(=O)N2CCCCC2COCC(=O)N2CCN(C3CCN(C)CC3)CC2)c(C)s1 (stereo not drawn) [Example 172, 2-((1-(2,5-dimethylthiophen-3-ylsulfonyl)piperidin-2-yl)methoxy)-1-(4-(1-methylpiperidin-4-yl)piperazin-1-yl)ethanone]",101,85.2
"COc1cc(C)c(S(=O)(=O)N2CCCC2COCC(=O)NCCCN2CCN(Cc3ccccc3)CC2)c(C)c1 (stereo not drawn) [Example 521, N-(3-(4-benzylpiperazin-1-yl)propyl)-2-((1-(4-methoxy-2,6-dimethylphenylsulfonyl)pyrrolidin-2-yl)methoxy)acetamide]",85.2,99.3
"COc1cc(C)c(S(=O)(=O)N2CCCCC2COCC(=O)N2CCCC2c2ccccn2)c(C)c1 (stereo not drawn) [Example 247, 2-((1-(4-methoxy-2,6-dimethylphenylsulfonyl)piperidin-2-yl)methoxy)-1-(2-(pyridin-2-yl)pyrrolidin-1-yl)ethanone]",70.8,96.8
"COc1cc(C)c(S(=O)(=O)N2CCCCC2COCC(=O)N2CCN(C)CC2)c(C)c1 (stereo not drawn) [Example 242, 2-((1-(4-methoxy-2,6-dimethylphenylsulfonyl)piperidin-2-yl)methoxy)-1-(4-methylpiperazin-1-yl)ethanone]",102,88
